Data published in patent publication US8318504B2, “MRP2 efflux pathway prognostic method” (priority 2009, dated 2012).

What was measured:
NTCP = target: T1, NTCP (Homo sapiens, UniProt Q14973); assay: Uptake of TC and CLF into CHO cells stably expressing NTCP; type: cell-based; settings: 45 seconds, sodium-dependent uptake rates
T1 construct: the coding region ligated into pcDNA5/FRT; expressed in transfected cells
T1 sequence (Q14973 1-349): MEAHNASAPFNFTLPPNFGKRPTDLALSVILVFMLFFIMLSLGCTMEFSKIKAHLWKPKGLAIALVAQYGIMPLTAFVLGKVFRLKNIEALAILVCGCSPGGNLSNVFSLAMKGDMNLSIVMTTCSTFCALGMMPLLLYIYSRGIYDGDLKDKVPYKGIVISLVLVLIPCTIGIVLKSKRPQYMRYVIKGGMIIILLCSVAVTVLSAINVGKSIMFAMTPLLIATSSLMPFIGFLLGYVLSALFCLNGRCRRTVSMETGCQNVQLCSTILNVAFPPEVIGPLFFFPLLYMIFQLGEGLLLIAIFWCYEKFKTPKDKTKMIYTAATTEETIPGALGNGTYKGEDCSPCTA
Description: cDNA for human NTCP [Hagenbuch et al., J Clin Invest 1994 March; 93(3): 1326-1331] was cut with EcoRV and HindI and the coding region ligated into pcDNA5/FRT (Invitrogen, Life-Technologies, Carlsbad, Calif.). CHO FlpIn cells (Invitrogen, Life-Technologies) were transfected with the resulting construct using Lipofectamine® 2000 (Invitrogen, Life-Technologies). Stably transfected cells were selected with 550 μg Hygromycin-B in HAM-F12 medium (Gibco, Invitrogen, Life-Technologies). Transfected cells were cloned with the limiting dilution method. […] To further characterize the cloned cells, immunofluorescence localization of NTCP using a polyclonal antibody against NTCP [Kullak-Ublick G et al., Gastroenterology 1997 October; 113(4):1295-1305] was performed as described by Huber R D et al. [Am J Physiol Cell Physiol 2007 February; 292(2):[…]-[…]]. CHO cells expressing OATP1B1, OATP1B3 and OATP2B1 were described previously [Treiber et al., DMD 35:1400-1407, 2007]. For all transport experiments, cells grown on 3 cm culture dishes were cultured for 24 hours in media supplemented with 5 mmol/L sodium-butyrate to increase expression levels of transfected transporters [Palermo D P et al., J Biotechnol 1991 June; 19(1):35-47]. • Transport experiments with uptake of radioactively labeled substrates: These experiments were performed as described by Huber R D et al. […] Uptake was performed in the same buffers as for the radioactive substrates above. For visualization of CLF uptake, cells were immediately inspected with a Leica-DM-IRBE-inverted-microcope (Leica-Microsystems, Wetzlar, Germany) equipped with a Hamamatsu-ORKA-ER-camera (Hamamatsu-Photonoics, Japan). To determine uptake of CLF, cells were solubilized by the addition of 2 ml 1% (w/v) Triton-X-100. After complete solubilization, 1.5 ml was used to measure fluorescence in a Perkin-Elmer LS-5 luminescence-spectrometer set at λexe 486 nm (slit 10 nm) and λem 520 nm (slit 5 nm). Protein was determined with the bicinchoninic acid method using a kit from Interchim (Montfuçon, France). […]

[1] = substrate: CC(CCC(=O)NC(CCCCNC(=S)Nc1ccc(-c2c3ccc(=O)cc-3oc3cc(O)ccc23)c(C(=O)O)c1)C(=O)O)C1CCC2C3C(O)CC4CC(O)CCC4(C)C3CC(O)C12C; assay: ATP-dependent transport of CLF into Sf21 membrane vesicles containing ABCC3; type: biochemical, human; settings: other: 30 μg total protein, presence or absence of 4 mmol/L ATP; 27.0 °C
Description: (§1) The production of recombinant baculovirus was as described by de Waart et al. [Liver Int 2006 April; 26(3):362-368]. ABCC3 and ABCG2-recombinant baculovirus were a kind gift from Borst [Breedveld P. et al., Cancer Res 2004 Aug. 15; 64(16):5804-5811 and Borst P. et al., J Biol Chem 2001 Dec. 7; 276(49):46400-46407.]. ABCB11-recombinant baculovirus was a kind gift from Thompson [Thompson R J et al., Gastroenterology 2002 November; 123(5):1649-1658]. Sf21 cells grown at 27° C. were infected with ABCB11, ABCC2, ABCC3 and ABCG2-cDNA containing baculovirus. Cells were harvested at 2-4 days after infection. Membrane vesicle preparation was as described by de Waart et al. [Liver Int 2006 April; 26(3):362-368].
(§2) Transport studies with membrane vesicles were performed using the rapid filtration technique as described by Heijn M et al. [Am J Physiol 1992 January; 262(1 Pt 1):C104-C110]. Radiolabel was measured with a scintillation counter. When CLF was used as a probe, filters were placed in a glass tube, 0.1% Triton-X-100 was added and the tubes vortexed. Samples were pipetted in 96-well plates (Kartell, Noviglio, Italy) and the amount CLF quantitated by measurement of fluorescence at λexe 485 nm and λcm 520 nm using a NovoStar (BMG-labtech, Offenburg, Germany). […]

[2] = substrate: CC(CCC(=O)NC(CCCCNC(=S)Nc1ccc(-c2c3ccc(=O)cc-3oc3cc(O)ccc23)c(C(=O)O)c1)C(=O)O)C1CCC2C3C(O)CC4CC(O)CCC4(C)C3CC(O)C12C; assay: ATP-dependent transport of CLF into Sf21 membrane vesicles containing ABCC2; type: biochemical, human; settings: other: 10 μg total protein, presence or absence of 4 mmol/L ATP; 27.0 °C
Description: as §1, §2

C[C@H](CCC(=O)NCCS(=O)(=O)O)[C@H]1CC[C@H]2[C@@H]3[C@H](O)C[C@@H]4C[C@H](O)CC[C@]4(C)[C@H]3C[C@H](O)[C@]12C [TC, taurocholate]
Vmax for sodium-dependent transport of TC (NTCP): 6738 pmol TC/mg protein/min
Km (NTCP; read-out: Km for sodium-dependent transport of TC): 16 µM

B1: ABCC3 (Homo sapiens) (protein)
chain: MDALCGSGELGSKFWDSNLSVHTENPDLTPCFQNSLLAWVPCIYLWVALPCYLLYLRHHCRGYIILSHLSKLKMVLGVLLWCVSWADLFYSFHGLVHGRAPAPVFFVTPLVVGVTMLLATLLIQYERLQGVQSSGVLIIFWFLCVVCAIVPFRSKILLAKAEGEISDPFRFTTFYIHFALVLSALILACFREKPPFFSAKNVDPNPYPETSAGFLSRLFFWWFTKMAIYGYRHPLEEKDLWSLKEEDRSQMVVQQLLEAWRKQEKQTARHKASAAPGKNASGEDEVLLGARPRPRKPSFLKALLATFGSSFLISACFKLIQDLLSFINPQLLSILIRFISNPMAPSWWGFLVAGLMFLCSMMQSLILQHYYHYIFVTGVKFRTGIMGVIYRKALVITNSVKRASTVGEIVNLMSVDAQRFMDLAPFLNLLWSAPLQIILAIYFLWQNLGPSVLAGVAFMVLLIPLNGAVAVKMRAFQVKQMKLKDSRIKLMSEILNGIKVLKLYAWEPSFLKQVEGIRQGELQLLRTAAYLHTTTTFTWMCSPFLVTLITLWVYVYVDPNNVLDAEKAFVSVSLFNILRLPLNMLPQLISNLTQASVSLKRIQQFLSQEELDPQSVERKTISPGYAITIHSGTFTWAQDLPPTLHSLDIQVPKGALVAVVGPVGCGKSSLVSALLGEMEKLEGKVHMKGSVAYVPQQAWIQNCTLQENVLFGKALNPKRYQQTLEACALLADLEMLPGGDQTEIGEKGINLSGGQRQRVSLARAVYSDADIFLLDDPLSAVDSHVAKHIFDHVIGPEGVLAGKTRVLVTHGISFLPQTDFIIVLADGQVSEMGPYPALLQRNGSFANFLCNYAPDEDQGHLEDSWTALEGAEDKEALLIEDTLSNHTDLTDNDPVTYVVQKQFMRQLSALSSDGEGQGRPVPRRHLGPSEKVQVTEAKADGALTQEEKAAIGTVELSVFWDYAKAVGLCTTLAICLLYVGQSAAAIGANVWLSAWTNDAMADSRQNNTSLRLGVYAALGILQGFLVMLAAMAMAAGGIQAARVLHQALLHNKIRSPQSFFDTTPSGRILNCFSKDIYVVDEVLAPVILMLLNSFFNAISTLVVIMASTPLFTVVILPLAVLYTLVQRFYAATSRQLKRLESVSRSPIYSHFSETVTGASVIRAYNRSRDFEIISDTKVDANQRSCYPYIISNRWLSIGVEFVGNCVVLFAALFAVIGRSSLNPGLVGLSVSYSLQVTFALNWMIRMMSDLESNIVAVERVKEYSKTETEAPWVVEGSRPPEGWPPRGEVEFRNYSVRYRPGLDLVLRDLSLHVHGGEKVGIVGRTGAGKSSMTLCLFRILEAAKGEIRIDGLNVADIGLHDLRSQLTIIPQDPILFSGTLRMNLDPFGSYSEEDIWWALELSHLHTFVSSQPAGLDFQCSEGGENLSVGQRQLVCLARALLRKSRILVLDEATAAIDLETDNLIQATIRTQFDTCTVLTIAHRLNTIMDYTRVLVLDKGVVAEFDSPANLIAARGIFYGMARDAGLA
notes: made in house; host or cells: Sf21 insect cells, baculovirus (gift from Borst); plasma membrane vesicles
Km [1]: 3.7 ± 1.0 µM

B2: ABCC2 (Homo sapiens) (protein)
chain: MLEKFCNSTFWNSSFLDSPEADLPLCFEQTVLVWIPLGYLWLLAPWQLLHVYKSRTKRSSTTKLYLAKQVFVGFLLILAAIELALVLTEDSGQATVPAVRYTNPSLYLGTWLLVLLIQYSRQWCVQKNSWFLSLFWILSILCGTFQFQTLIRTLLQGDNSNLAYSCLFFISYGFQILILIFSAFSENNESSNNPSSIASFLSSITYSWYDSIILKGYKRPLTLEDVWEVDEEMKTKTLVSKFETHMKRELQKARRALQRRQEKSSQQNSGARLPGLNKNQSQSQDALVLEDVEKKKKKSGTKKDVPKSWLMKALFKTFYMVLLKSFLLKLVNDIFTFVSPQLLKLLISFASDRDTYLWIGYLCAILLFTAALIQSFCLQCYFQLCFKLGVKVRTAIMASVYKKALTLSNLARKEYTVGETVNLMSVDAQKLMDVTNFMHMLWSSVLQIVLSIFFLWRELGPSVLAGVGVMVLVIPINAILSTKSKTIQVKNMKNKDKRLKIMNEILSGIKILKYFAWEPSFRDQVQNLRKKELKNLLAFSQLQCVVIFVFQLTPVLVSVVTFSVYVLVDSNNILDAQKAFTSITLFNILRFPLSMLPMMISSMLQASVSTERLEKYLGGDDLDTSAIRHDCNFDKAMQFSEASFTWEHDSEATVRDVNLDIMAGQLVAVIGPVGSGKSSLISAMLGEMENVHGHITIKGTTAYVPQQSWIQNGTIKDNILFGTEFNEKRYQQVLEACALLPDLEMLPGGDLAEIGEKGINLSGGQKQRISLARATYQNLDIYLLDDPLSAVDAHVGKHIFNKVLGPNGLLKGKTRLLVTHSMHFLPQVDEIVVLGNGTIVEKGSYSALLAKKGEFAKNLKTFLRHTGPEEEATVHDGSEEEDDDYGLISSVEEIPEDAASITMRRENSFRRTLSRSSRSNGRHLKSLRNSLKTRNVNSLKEDEELVKGQKLIKKEFIETGKVKFSIYLEYLQAIGLFSIFFIILAFVMNSVAFIGSNLWLSAWTSDSKIFNSTDYPASQRDMRVGVYGALGLAQGIFVFIAHFWSAFGFVHASNILHKQLLNNILRAPMRFFDTTPTGRIVNRFAGDISTVDDTLPQSLRSWITCFLGIISTLVMICMATPVFTIIVIPLGIIYVSVQMFYVSTSRQLRRLDSVTRSPIYSHFSETVSGLPVIRAFEHQQRFLKHNEVRIDTNQKCVFSWITSNRWLAIRLELVGNLTVFFSALMMVIYRDTLSGDTVGFVLSNALNITQTLNWLVRMTSEIETNIVAVERITEYTKVENEAPWVTDKRPPPDWPSKGKIQFNNYQVRYRPELDLVLRGITCDIGSMEKIGVVGRTGAGKSSLTNCLFRILEAAGGQIIIDGVDIASIGLHDLREKLTIIPQDPILFSGSLRMNLDPFNNYSDEEIWKALELAHLKSFVASLQLGLSHEVTEAGGNLSIGQRQLLCLGRALLRKSKILVLDEATAAVDLETDNLIQTTIQNEFAHCTVITIAHRLHTIMDSDKVMVLDNGKIIECGSPEELLQIPGPFYFMAKEAGIENVNSTKF
notes: made in house; host or cells: Sf21 insect cells, baculovirus; plasma membrane vesicles
Km [2]: 3.3 ± 2.0 µM
